Reference: article PMC6407592, “Novel Re(I) tricarbonyl coordination compounds based on 2-pyridyl-1,2,3-triazole derivatives bearing a 4-amino-substituted benzenesulfonamide arm: synthesis, crystal structure, computational studies and inhibitory activity against carbonic anhydrase I, II, and IX isoforms†” (Journal of Enzyme Inhibition and Medicinal Chemistry, 2019)

Assays:
hCA I = hCA I (Homo sapiens, UniProt P00915); experiment: stopped-flow CO2 hydrase assay, hCA I
Method: (§1) An Applied Photophysics stopped-flow instrument was used for assaying the CA catalysed CO2 hydration activity. […] In particular, CO2 was bubbled in distilled deionised water for 30 min so that the water was saturated (the concentration at a specific temperature is known from literature). In addition, a CO2 assay kit (from Sigma) was used to measure the concentration in variously diluted solutions obtained from the saturated one (which was kept at the same temperature and a constant bubbling during the experiments). […] The uncatalysed rates were determined in the same manner and subtracted from the total observed rates. Stock solutions of inhibitor (0.1 mM) were prepared in distilled-deionised water and dilutions up to 0.01 nM were done thereafter with distilled-deionised water. Inhibitor and enzyme solutions were pre-incubated together for 15 min–2 h (or longer, i.e. 4–6 h) at room temperature (at 4 °C for the incubation periods longer than 15 min) prior to assay, in order to allow for the formation of the E-I complex. […]

hCA IX = hCA IX (Homo sapiens, UniProt Q16790); experiment: stopped-flow CO2 hydrase assay, hCA IX
Method: An Applied Photophysics stopped-flow instrument was used for assaying the CA catalysed CO2 hydration activity. […] In particular, CO2 was bubbled in distilled deionised water for 30 min so that the water was saturated (the concentration at a specific temperature is known from literature). In addition, a CO2 assay kit (from Sigma) was used to measure the concentration in variously diluted solutions obtained from the saturated one (which was kept at the same temperature and a constant bubbling during the experiments). […] The uncatalysed rates were determined in the same manner and subtracted from the total observed rates. Stock solutions of inhibitor (0.1 mM) were prepared in distilled-deionised water and dilutions up to 0.01 nM were done thereafter with distilled-deionised water. Inhibitor and enzyme solutions were pre-incubated together for 15 min–2 h (or longer, i.e. 4–6 h) at room temperature (at 4 °C for the incubation periods longer than 15 min) prior to assay, in order to allow for the formation of the E-I complex. The inhibition constants were obtained by non-linear least-squares methods using PRISM 3 and the Cheng-Prusoff equation[25] ^, [26], as reported earlier, and represent the mean from at least three different determinations. hCA I was purchased by Sigma-Aldrich and used without further purification, whereas all the other hCA isoforms were recombinant ones obtained in-house as reported earlier[27] ^, [28].

hCA II = hCA II (Homo sapiens, UniProt P00918); experiment: stopped-flow CO2 hydrase assay, hCA II
Method: as §1

hCA I, sequence (P00915 whole entry): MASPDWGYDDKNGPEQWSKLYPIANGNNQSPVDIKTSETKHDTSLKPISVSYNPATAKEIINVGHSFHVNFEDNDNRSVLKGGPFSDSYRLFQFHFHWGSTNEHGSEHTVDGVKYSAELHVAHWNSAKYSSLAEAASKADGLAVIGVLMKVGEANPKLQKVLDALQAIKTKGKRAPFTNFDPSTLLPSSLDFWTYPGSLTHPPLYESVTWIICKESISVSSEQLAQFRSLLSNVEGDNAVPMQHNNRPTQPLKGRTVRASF

Ki (hCA I)	melting point	Ki (hCA IX)	Selectivity ratio I/IX (hCA IX; KI hCA I / KI hCA IX)	Selectivity ratio II/IX (hCA IX; KI hCA II / KI hCA IX)	fold higher affinity than its rhenium complex 4a (hCA IX; hCA IX, Ki(3a) vs Ki(4a))	Ki (hCA II)	SMILES
0.181 µM	244 to 248 °C	0.0028 µM	64.75	1.46	7 fold	0.0041 µM	NS(=O)(=O)c1ccc(-n2cc(-c3ccccn3)nn2)cc1 [3a, 4-(4–(2-pyridyl)-1H-1,2,3-triazol-1-yl)-benzenesulfonamide]
0.305 µM	192 to 195 °C	–	–	–	–	0.0561 µM	NS(=O)(=O)c1ccc(Cn2cc(-c3ccccn3)nn2)cc1 [3b, 4–(4-(2-pyridyl)-1H-1,2,3-triazol-1-ylmethyl)-benzenesulfonamide]
